Experimental data taken from ChEMBL document CHEMBL4602725 (J Med Chem, 2020).

Tests used:
[1] = biological target: T1, Histone deacetylase 1 (Homo sapiens, UniProt Q13547); assay: Inhibition of human recombinant HDAC1 pre-incubated for 30 mins before Ac-Leu- Gly-Lys(Ac)-AMC substrate addition and measured after 90 mins by fluorescence based assay
[2] = biological target: Histone deacetylase 2 (Homo sapiens, UniProt Q92769); assay: Inhibition of human recombinant HDAC2 pre-incubated for 30 mins before Ac-Leu- Gly-Lys(Ac)-AMC substrate addition and measured after 90 mins by fluorescence based assay
Histone deacetylase 2, sequence (Q92769 whole entry): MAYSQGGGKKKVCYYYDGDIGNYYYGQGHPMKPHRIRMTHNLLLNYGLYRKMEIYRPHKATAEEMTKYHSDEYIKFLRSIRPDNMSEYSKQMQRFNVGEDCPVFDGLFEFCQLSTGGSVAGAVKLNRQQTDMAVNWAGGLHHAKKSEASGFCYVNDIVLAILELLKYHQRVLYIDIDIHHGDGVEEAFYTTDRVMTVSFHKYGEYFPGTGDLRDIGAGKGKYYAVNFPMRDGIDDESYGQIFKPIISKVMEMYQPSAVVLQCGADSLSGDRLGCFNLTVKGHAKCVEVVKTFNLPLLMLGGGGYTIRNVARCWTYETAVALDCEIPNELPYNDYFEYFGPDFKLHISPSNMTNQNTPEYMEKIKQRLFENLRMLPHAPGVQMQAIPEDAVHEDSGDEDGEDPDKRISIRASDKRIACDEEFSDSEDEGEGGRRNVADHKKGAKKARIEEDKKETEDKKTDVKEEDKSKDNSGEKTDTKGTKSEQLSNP

[3] = biological target: Histone deacetylase 3 (Homo sapiens, UniProt O15379); assay: Inhibition of human recombinant HDAC3 pre-incubated for 30 mins before Ac-Leu- Gly-Lys(Ac)-AMC substrate addition and measured after 90 mins by fluorescence based assay
Histone deacetylase 3, sequence (O15379 whole entry): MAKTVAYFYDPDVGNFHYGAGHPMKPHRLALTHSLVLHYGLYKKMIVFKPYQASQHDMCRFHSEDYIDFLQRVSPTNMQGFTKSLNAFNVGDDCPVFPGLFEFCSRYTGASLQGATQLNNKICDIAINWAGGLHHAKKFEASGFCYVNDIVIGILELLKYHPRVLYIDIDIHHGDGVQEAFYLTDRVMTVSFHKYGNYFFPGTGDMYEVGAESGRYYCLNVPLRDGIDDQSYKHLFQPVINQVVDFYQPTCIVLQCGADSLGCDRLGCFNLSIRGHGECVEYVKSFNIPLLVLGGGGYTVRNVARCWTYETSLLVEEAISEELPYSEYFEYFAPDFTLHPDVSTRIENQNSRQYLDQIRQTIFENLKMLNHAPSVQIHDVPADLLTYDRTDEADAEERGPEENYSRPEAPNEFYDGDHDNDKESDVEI

[4] = biological target: T2, Histone deacetylase 8 (Homo sapiens, UniProt Q9BY41); assay: Inhibition of human recombinant HDAC8 pre-incubated for 30 mins before Ac-Leu- Gly-Lys(Ac)-AMC substrate addition and measured after 90 mins by fluorescence based assay
T2 sequence (Q9BY41 whole entry): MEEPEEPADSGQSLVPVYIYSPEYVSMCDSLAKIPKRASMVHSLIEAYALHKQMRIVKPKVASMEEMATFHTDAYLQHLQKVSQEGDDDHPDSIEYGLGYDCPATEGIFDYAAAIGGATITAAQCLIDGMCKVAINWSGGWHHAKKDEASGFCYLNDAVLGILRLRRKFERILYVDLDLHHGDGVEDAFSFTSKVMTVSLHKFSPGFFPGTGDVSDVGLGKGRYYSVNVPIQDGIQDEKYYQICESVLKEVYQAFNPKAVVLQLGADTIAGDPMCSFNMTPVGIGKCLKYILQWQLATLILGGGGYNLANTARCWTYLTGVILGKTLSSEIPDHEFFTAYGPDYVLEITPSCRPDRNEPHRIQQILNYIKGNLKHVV

[5] = system: A549; assay: Cytotoxicity against human A549 cells assessed as reduction in cell viability incubated for 72 hrs by MTT assay; conditions: A549, 72 h
[6] = system: HT-29; assay: Cytotoxicity against human HT-29 cells assessed as reduction in cell viability incubated for 72 hrs by MTT assay; conditions: HT-29, 72 h
[7] = system: HeLa; assay: Cytotoxicity against human HeLa cells assessed as reduction in cell viability incubated for 72 hrs by MTT assay
[8] = system: MDA-MB-231; assay: Cytotoxicity against human MDA-MB-231 cells assessed as reduction in cell viability incubated for 72 hrs by MTT assay; conditions: MDA-MB-231, 72 h
[9] = system: MM96L; assay: Cytotoxicity against human MM96L cells assessed as reduction in cell viability incubated for 72 hrs by MTT assay
[10] = system: A549; assay: Cytotoxicity against human A549 cells assessed as increase in intracellular caspase 3/7 release incubated for 72 hrs by Caspase-Glo 3/7 assay; conditions: A549, 72 h
[11] = system: HT-29; assay: Cytotoxicity against human HT-29 cells assessed as increase in intracellular caspase 3/7 release incubated for 72 hrs by Caspase-Glo 3/7 assay; conditions: HT-29, 72 h
[12] = system: HeLa; assay: Cytotoxicity against human HeLa cells assessed as increase in intracellular caspase 3/7 release incubated for 72 hrs by Caspase-Glo 3/7 assay
[13] = system: MDA-MB-231; assay: Cytotoxicity against human MDA-MB-231 cells assessed as increase in intracellular caspase 3/7 release incubated for 72 hrs by Caspase-Glo 3/7 assay; conditions: MDA-MB-231, 72 h
[14] = system: MM96L; assay: Cytotoxicity against human MM96L cells assessed as increase in intracellular caspase 3/7 release incubated for 72 hrs by Caspase-Glo 3/7 assay
[15] = biological target: T1, Histone deacetylase 1; assay: Inhibition of HDAC1 in human MM96L cells assessed as activation of histone H4 acetylation at Lys5, Lys8, Lys12 and Lys16 residues by Western blot analysis; assay type: cell-based

T1 sequence (Q13547 whole entry): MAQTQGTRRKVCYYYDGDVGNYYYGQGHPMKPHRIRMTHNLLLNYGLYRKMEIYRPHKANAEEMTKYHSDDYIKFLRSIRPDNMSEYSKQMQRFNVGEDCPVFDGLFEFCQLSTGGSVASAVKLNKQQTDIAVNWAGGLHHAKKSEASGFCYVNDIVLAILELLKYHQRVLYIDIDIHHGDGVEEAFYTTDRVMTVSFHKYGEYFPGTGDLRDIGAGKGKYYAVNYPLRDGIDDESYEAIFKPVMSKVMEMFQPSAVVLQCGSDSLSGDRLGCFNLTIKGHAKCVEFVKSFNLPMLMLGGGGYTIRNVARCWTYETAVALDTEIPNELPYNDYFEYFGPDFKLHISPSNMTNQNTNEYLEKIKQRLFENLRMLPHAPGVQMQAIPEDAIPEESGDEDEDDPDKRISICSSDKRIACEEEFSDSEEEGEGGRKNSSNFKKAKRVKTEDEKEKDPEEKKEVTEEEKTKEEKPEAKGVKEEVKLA

Structure (SMILES): O=C(NO)c1ccc(NC(=O)C2(c3ccc4ccccc4c3)CCCC2)cc1
- IC50 [1]: 11 nM

Structure (SMILES): Cc1n[nH]c(C)c1-c1ccc(C2(C(=O)Nc3ccc(C(=O)NO)cc3)CCCC2)cc1
- IC50 [1]: 8 nM

Structure (SMILES): O=C(NO)c1ccc(NC(=O)C2(c3ccc(-c4ccccc4)c(F)c3)CCCC2)cc1
- IC50 [1]: 42 nM

Structure (SMILES): O=C(NO)c1ccc(NC(=O)C2(c3ccc(Br)cc3)CCCC2)cc1
- IC50 [1]: 7 nM

Structure (SMILES): O=C(NO)c1ccc(NC(=O)C2(c3ccc(-c4ccc5[nH]ccc5c4)cc3)CCCC2)cc1
- IC50 [1]: 8 nM

Structure (SMILES): O=C(NO)c1ccc(NC(=O)C2(c3c[nH]c(-c4ccc(Br)cc4)n3)CCCC2)cc1
- IC50 [1]: 10 nM

Structure (SMILES): Nc1ccc(C2(C(=O)Nc3ccc(C(=O)NO)cc3)CCOCC2)cc1
- IC50 [1]: 22 nM

Structure (SMILES): O=C(NO)c1ccc(NC(=O)C2(c3ccc(F)cc3)CCCC2)cc1
- IC50 [1]: 41 nM

Structure (SMILES): O=C(NO)c1ccc(NC(=O)C2(c3ccc(-c4cn[nH]c4)cc3)CCCC2)cc1
- IC50 [1]: 3 nM

Structure (SMILES): O=C(NO)c1ccc(NC(=O)C2(c3ccccc3)CCCC2)nc1
- IC50 [1]: 132 nM

Structure (SMILES): CC(=O)Nc1ccccc1-c1ccc(C2(C(=O)Nc3ccc(C(=O)NO)cc3)CCCC2)cc1
- IC50 [1]: 0.94 nM

Structure (SMILES): O=C(NO)c1ccc(NC(=O)C2(c3ccc4ccccc4c3)CCCCC2)cc1
- IC50 [1]: 43 nM

Structure (SMILES): COc1ccc(C2(C(=O)Nc3ccc(C(=O)NO)cc3)CCCCC2)cc1-c1cccc(N)c1
- IC50 [1]: 10 nM

Structure (SMILES): CC(C)C(C(=O)Nc1ccc(C(=O)NO)cn1)c1ccccc1 (stereo not drawn)
- IC50 [1]: 22 nM

Structure (SMILES): O=C(NO)c1ccc(NC(=O)C2(c3csc(-c4ccccc4Oc4ccccc4)n3)CCCC2)cc1
- IC50 [1]: 431 nM

Structure (SMILES): O=C(NO)c1ccc(NC(=O)C2(c3ccc(Cl)c(Cl)c3)CCOCC2)cc1
- IC50 [1]: 6 nM

Structure (SMILES): CC(C)C(C(=O)Nc1ccc(C(=O)NO)c(Cl)c1)c1ccccc1 (racemic)
- IC50 [1]: 8680 nM

Structure (SMILES): O=C(NO)c1ccc(NC(=O)C2(c3ccccc3)CCNCC2)cc1
- IC50 [1]: 12 nM

Structure (SMILES): O=C(O)c1cccc(-c2ccc(C3(C(=O)Nc4ccc(C(=O)NO)cc4)CCCC3)cc2)c1
- IC50 [1]: 2 nM
- IC50 [2]: 13 nM
- IC50 [3]: 7 nM
- IC50 [4]: 118 nM
- IC50 [5]: > 100000 nM
- IC50 [6]: > 100000 nM
- IC50 [7]: > 100000 nM
- IC50 [8]: > 100000 nM
- IC50 [9]: > 100000 nM
- EC50 [10]: > 100000 nM
- EC50 [11]: > 100000 nM
- EC50 [12]: > 100000 nM
- EC50 [13]: > 100000 nM
- EC50 [14]: > 100000 nM

Structure (SMILES): COc1ccc(C2(C(=O)Nc3ccc(C(=O)NO)cc3)CCCCC2)cc1-c1ccccc1NC(C)=O
- IC50 [1]: 9 nM

Structure (SMILES): O=C(NO)c1ccc(NC(=O)C2(c3ccc4c(c3)OCO4)CCCCC2)cc1
- IC50 [1]: 42 nM

Structure (SMILES): CC(C)C(C(=O)Nc1ccc(C(=O)Nc2ccccc2N)cc1)c1ccccc1 (racemic)
- IC50 [1]: 231 nM

Structure (SMILES): COc1ccc(C2(C(=O)Nc3ccc(C(=O)NO)cc3)CCCCC2)cc1OC
- IC50 [1]: 29 nM

Structure (SMILES): O=C(NO)c1ccc(NC(=O)C2(c3ccccc3)CCCCC2)cc1
- IC50 [1]: 15 nM

Structure (SMILES): O=C(NO)c1ccc(NC(=O)C2(c3ccc(Br)cc3)CCOCC2)cc1
- IC50 [1]: 2 nM
- IC50 [2]: 17 nM
- IC50 [3]: 4 nM
- IC50 [4]: 59 nM
- EC50 [15]: 600 nM
- inhibition [15]: Dose-dependent effect

Structure (SMILES): CCC(CC)(C(=O)Nc1ccc(C(=O)NO)cc1)c1ccccc1
- IC50 [1]: 430 nM

Structure (SMILES): O=C(NO)c1ccc(NC(=O)C2(c3ccc(-c4cc[nH]n4)cc3)CCCC2)cc1
- IC50 [1]: 4 nM

Structure (SMILES): O=C(NO)c1ccc(NC(=O)C2(c3c[nH]c(-c4ccccc4)n3)CCCC2)cc1
- IC50 [1]: 3 nM
- IC50 [2]: 21 nM
- IC50 [3]: 10 nM
- IC50 [4]: 41 nM

Structure (SMILES): O=C(NO)c1ccc(NC(=O)C2(c3ccc(-c4cn[nH]c4)cc3)CCCCC2)cc1
- IC50 [1]: 2 nM
- IC50 [2]: 10 nM
- IC50 [3]: 2 nM
- IC50 [4]: 69 nM

Structure (SMILES): CC(C)C(NC(=O)c1ccc(C(=O)NO)cc1)c1ccccc1 (racemic)
- IC50 [1]: 2120 nM

Structure (SMILES): CC(=O)Nc1ccc(N)cc1-c1ccc(C2(C(=O)Nc3ccc(C(=O)NO)cc3)CCCCC2)cc1
- IC50 [1]: 10 nM

Structure (SMILES): O=C(NO)c1ccc(NC(=O)C2(c3ccc(Cl)cc3)CCCC2)cc1
- IC50 [1]: 12 nM

Structure (SMILES): C/C(=N\O)c1sccc1-c1ccc(C2(C(=O)Nc3ccc(C(=O)NO)cc3)CCCC2)cc1
- IC50 [1]: 43 nM

Structure (SMILES): Cc1[nH]ncc1-c1ccc(C2(C(=O)Nc3ccc(C(=O)NO)cc3)CCCC2)cc1
- IC50 [1]: 5 nM

Structure (SMILES): O=C(NO)c1ccc(NC(=O)C2(c3c[nH]c(-c4ccc([N+](=O)[O-])cc4)n3)CCCC2)cc1
- IC50 [1]: 6 nM

Structure (SMILES): CC(C)C(C(=O)Nc1ccc(C(=O)NO)cc1Cl)c1ccccc1 (racemic)
- IC50 [1]: 1060 nM

Structure (SMILES): O=C(NO)c1ccc(NC(=O)C2(c3ccc(-c4ccccc4)cc3)CCCC2)cc1
- IC50 [1]: 16 nM

Structure (SMILES): O=C(NO)c1ccc(NC(=O)C2(c3ccc(-c4cccnc4)cc3)CCCC2)cc1
- IC50 [1]: 5 nM

Structure (SMILES): Nc1cccc(-c2ccc(C3(C(=O)Nc4ccc(C(=O)NO)cc4)CCCC3)cc2)c1
- IC50 [1]: 4 nM

Structure (SMILES): O=C(NO)c1ccc(NC(=O)C2(c3ccc(-c4cn[nH]c4)cc3)CCOCC2)cc1
- IC50 [1]: 2 nM

Structure (SMILES): O=C(NO)c1ccc(NC(=O)C2(c3ccccc3)CCCC2)cc1
- IC50 [1]: 28 nM

Structure (SMILES): COc1cccc(-c2nc(C3(C(=O)Nc4ccc(C(=O)NO)cc4)CCCC3)cs2)c1
- IC50 [1]: 15 nM

Structure (SMILES): O=C(NO)c1ccc(NC(=O)C(c2ccccc2)c2ccccc2)cc1
- IC50 [1]: 250 nM

Structure (SMILES): CC(C)(C(=O)Nc1ccc(C(=O)NO)cc1)c1ccccc1
- IC50 [1]: 218 nM

Structure (SMILES): O=C(NO)c1ccc(NC(=O)C2(c3csc(-c4ccccc4)n3)CCCC2)cc1
- IC50 [1]: 12 nM

Structure (SMILES): CCCC(CCC)C(=O)Nc1ccc(C(=O)NO)cc1
- IC50 [1]: 738 nM

Structure (SMILES): O=C(NO)c1ccc(NC(=O)C2(c3ccc([N+](=O)[O-])cc3)CCOCC2)cc1
- IC50 [1]: 9 nM

Structure (SMILES): CC(=O)Nc1cccc(-c2ccc(C3(C(=O)Nc4ccc(C(=O)NO)cc4)CCCC3)cc2)c1
- IC50 [1]: 5 nM

Structure (SMILES): O=C(NO)c1ccc(NC(=O)C2(c3ccccc3)CCOCC2)cc1
- IC50 [1]: 28 nM

Structure (SMILES): O=C(NO)c1ccc(NC(=O)C2(c3ccccc3)CC2)cc1
- IC50 [1]: 93 nM

Structure (SMILES): O=C(NO)c1ccc(NC(=O)C2(c3c[nH]c4ccccc34)CCCC2)cc1
- IC50 [1]: 23 nM

Structure (SMILES): CC(C)C(C(=O)N(C)c1ccc(C(=O)NO)cc1)c1ccccc1 (racemic)
- IC50 [1]: 439 nM

Structure (SMILES): O=C(NO)c1ccc(NC(=O)C2(c3ccc(C(F)(F)F)c(F)c3)CCCC2)cc1
- IC50 [1]: 227 nM

Structure (SMILES): O=C(NO)c1ccc(NC(=O)C2(c3ccc(Br)cc3)CCCCC2)cc1
- IC50 [1]: 63 nM

Structure (SMILES): COc1ccc(C2(C(=O)Nc3ccc(C(=O)NO)cc3)CCCCC2)cc1-c1cn[nH]c1
- IC50 [1]: 3 nM

Structure (SMILES): O=C(Cc1ccccc1)Nc1ccc(C(=O)NO)cc1
- IC50 [1]: 75 nM

Structure (SMILES): COc1ccc(C2(C(=O)Nc3ccc(C(=O)NO)cc3)CCCCC2)cc1Br
- IC50 [1]: 31 nM

Structure (SMILES): O=C(NO)c1ccc(NC(=O)C2(c3ccc(-c4ccc(OCc5ccccc5)nc4)cc3)CCCC2)cc1
- IC50 [1]: 240 nM

Structure (SMILES): O=C(NO)c1ccc(NC(=O)C2(c3csc(-c4cccc(Oc5ccccc5)c4)n3)CCCC2)cc1
- IC50 [1]: > 10000 nM
